Assay results reported in patent publication US20220039384A1, “SELECTIVE WEED CONTROL WITH HALAUXIFEN OR 4-AMINO-3-CHLORO-5-FLUORO-6-(4-CHLORO-2-FLUORO-3-METHOXYPHENYL) PYRIDINE-2-CARBOXYLIC ACID OR DERIVATIVES THEREOF IN VINEYARDS OR PERENNIAL CROPS” (Corteva Agriscience LLC, priority 2013, published 2022).

Key:
Format in all cases: in vivo
[1] = system: CAPBP (Capsella bursa-pastoris, Shepherd's purse); test: Field trial, pre-emergence application (February), California vineyards: visual weed control
Description: (§1) As used herein, selective pre- and post-emergence control of undesirable vegetation means preventing, reducing, killing, or otherwise adversely modifying the development of the undesirable vegetation in the presence of crop plants with limited adverse effect on the crop plants. For example, a broadleaf weed control of 80% (rated visually) with crop injury of less than or equal to 20% (rated visually) would constitute selective control. In some embodiments the adverse effect on crop plants is limited to less than 10% visually rated crop injury. Visual crop injury is a composite rating accounting for all phytotoxic effects including chlorosis, necrosis, growth inhibition, epinasty, delays in maturity and seed or fruit deformity. Visual weed control is a composite rating accounting for reductions in pest plant biomass and/or stand reduction.
(§2) Small plot research experiments were conducted in Fresno, Calif., USA to evaluate the pre-emergence and post-emergence herbicidal weed control activity and the vines crop tolerance to pre-emergence and post-emergence application of Compound I and Compound II to the weeds. Application water volume of 100 to 187 liters per hectare (L/ha) was used for all experiments. All treatments were applied with a standard small plot carbon dioxide (CO2) backpack sprayer. All treatments were tank-mixed with Crop Oil Concentrate (COC), a well known adjuvant, at 2.34 L/ha. Experimental emulsifiable concentrate (EC) formulations were used for Compounds I and II. The dimethylammonium (DMA) salt of glyphosate was used in all trials. Pindar® GT is a commercial formulation containing a pre-mix of penoxsulam+oxyfluorfen (10+476 grams of active ingredient per liter (g ai/L), respectively). Vine crop stage was dormant (no leaves on the vines during the winter) or early spring growth at the time of Compound I or Compound II application. Generally, weeds were not emerged for the pre-emergence treatments or were at the two to six-leaf stage at the time of the post-emergence herbicide application.
(§3) Tables 1, 2 and 6 provide weed control results from pre-emergence applications of Compounds I and/or II prior to weed emergence; Tables 4, 7 and 8 provide weed control results from post-emergence applications of Compounds I and/or II applied to actively growing weeds; Tables 3 and 5 provide vine response data from pre-emergence and post-emergence applications of Compound I respectively.

[2] = system: CLNCM (Calandrinia ciliata, rock purslane); test: as above
Description: as §1, §2, §3

[3] = system: AMSIN (Amsinckia intermedia, coast fiddleneck); test: as above
Description: as §1, §2, §3

[4] = system: MALPA (Malva parviflora, smallflower malva); test: Field trial, post-emergence directed spring application (April), California vineyards: visual weed control
Description: as §1, §2, §3

[5] = system: AGRRE (Agropyron repens, quackgrass); test: as above
Description: as §1, §2, §3

[6] = system: ERIBO (Conyza bonariensis, hairy fleabane); test: as above
Description: as §1, §2, §3

[7] = system: SETFA (Setaria faberi, giant foxtail); test: as above
Description: as §1, §2, §3

[8] = system: PANCA (Panicum capillare, witchgrass); test: as above
Description: as §1, §2, §3

[9] = system: EROCI (Erodium cicutarium, redstem filaree); test: as above
Description: as §1, §2, §3

COC(=O)c1nc(-c2ccc(Cl)c(OC)c2F)cc(N)c1Cl [I—Me, methyl 4-amino-3-chloro-6-(4-chloro-2-fluoro-3-methoxyphenyl)pyridine-2-carboxylate]
% Visual Control 48 DAA CAPBP ([1]; 2.5 g ae/ha): 50% | % Visual Control 48 DAA CAPBP ([1]; 5 g ae/ha): 76.7% | % Visual Control 48 DAA CAPBP ([1]; 10 g ae/ha): 90% | % Visual Control 48 DAA CLNCM ([2]; 2.5 g ae/ha): 27.6% | % Visual Control 48 DAA CLNCM ([2]; 5 g ae/ha): 43.3% | % Visual Control 48 DAA CLNCM ([2]; 10 g ae/ha): 86.7% | % Visual Control 48 DAA AMSIN ([3]; 2.5 g ae/ha): 25% | % Visual Control 48 DAA AMSIN ([3]; 5 g ae/ha): 43.3% | % Visual Control 48 DAA AMSIN ([3]; 10 g ae/ha): 36.7% | % Visual Control 60 DAA MALPA ([4]; 5 g ae/ha): 75% | % Visual Control 60 DAA MALPA ([4]; 10 g ae/ha): 72% | % Visual Control 60 DAA MALPA ([4]; 20 g ae/ha): 73% | % Visual Control 60 DAA AGRRE ([5]; 5 g ae/ha): 87% | % Visual Control 60 DAA AGRRE ([5]; 10 g ae/ha): 80% | % Visual Control 60 DAA AGRRE ([5]; 20 g ae/ha): 83% | % Visual Control 60 DAA ERIBO ([6]; 5 g ae/ha): 97% | % Visual Control 60 DAA ERIBO ([6]; 10 g ae/ha): 95% | % Visual Control 60 DAA ERIBO ([6]; 20 g ae/ha): 93% | % Visual Control 60 DAA SETFA ([7]; 5 g ae/ha): 98% | % Visual Control 60 DAA SETFA ([7]; 10 g ae/ha): 80% | % Visual Control 60 DAA SETFA ([7]; 20 g ae/ha): 97% | % Visual Control 60 DAA PANCA ([8]; 5 g ae/ha): 82% | % Visual Control 60 DAA PANCA ([8]; 10 g ae/ha): 88% | % Visual Control 60 DAA PANCA ([8]; 20 g ae/ha): 86% | % Visual Control 60 DAA EROCI ([9]; 5 g ae/ha): 62% | % Visual Control 60 DAA EROCI ([9]; 10 g ae/ha): 70% | % Visual Control 60 DAA EROCI ([9]; 20 g ae/ha): 86%
